The values below come from PMC11743353 (Pharmacological Reports, 2024).

The subject of series [1] is SARS-CoV-2. The series is classed as cell-based.
Series [2] deals with ACE2 expression on Calu-3 cell surface. In words: ACE2 immunofluorescence assay on Calu-3 cell surface. As to conditions: Calu-3 cells; for ACE2 expression on cell membranes (immunofluorescence): 25 µM, 24 h and 48 h, compared to untreated. The format is cell-based, human. Here is the method:
Calu-3 cells were incubated with a specific antibody against human angiotensin-converting enzyme 2 (ACE2) (SN0754 Thermo Fisher; Italy) as previously reported, followed by incubation with the FITC goat antirabbit IgG (H + L) secondary antibody (Thermo Fisher, Milan, Italy). Immunofluorescence was observed by fluorescence microscopy (Nikon Eclipse TE2000S, Milan, Italy). DNA was stained using DAPI (Thermo Fisher, Milan, Italy) to identify cell nuclei and reported as relative fluorescence units (RFU) compared to untreated control sample, by immunofluorescence quantification derived by the analysis of 5 different images derived by biological replicates, using Qupath software. In Brief, for each condition, the percentage of ACE2-positive stained cells was obtained considering the total DAPI-stained nuclei as 100% and then normalized on untreated control sample result and reported as fold difference value.
Considering the role of ACE2 receptor in viral entry into host cells, and the ability of ADAM17 to shed it from cell surface, we analyzed ACE2 expression on Calu-3 cell surface by immunofluorescence after 24 and 48 h of treatment with the three compounds, at the concentration of 25 µM (Fig. 4 and supplementary Figure S1).

In series [3] the test system is SARS-CoV-2. In words: Plaques analysis (plaque dimension on Vero E6 cells). As to conditions: Vero E6 cells infected with supernatants of treated Calu-3 cells; mean diameter of 10 plaques.
Experimental: In order to assess the levels of infective SARS-CoV-2 released by treated or untreated cells, a plaque assay was performed. Vero E6 were seeded in 12-well plates and infected with serial dilution (10-fold) of the supernatants derived from treated and infected Calu-3 cells. Plaques were visible five days after infection, then cells were methanol-fixed, stained with crystal violet (0.1%) and plaques were manually counted [26] (microscope NeXcope NE620). The experiments were run in triplicate.
After crystal violet (0.1%) staining for antiviral activity assessment, plaques forming unit were identified and measured in size. Dimension of plaques derived by cytopathic effect of SARS-CoV-2 in Vero E6 cells was evaluated by microscopy (NeXcope NE620). For each well, 5 different fields were manually selected, and at least 10 plaques for each condition were identified and measured using NeXcope visualization software (Capture V.2.0) and reported as mean diameter (mm) ± SD.
Series [4] in a line: MTT assay for cell viability. The series is classed as cell-based. To be noted: human, Calu-3 cells, read-out: CC50 (cytotoxic concentration 50%). In general terms: Tetrazolium assays rely on reduction of a dye to a coloured formazan, in cell work by metabolically active cells.
Series [5] concerns SARS-CoV-2. The series is described as follows: microbe, parasite or virus in culture. The format is cell-based. To be noted: for EC50: Severe acute respiratory syndrome coronavirus 2, Calu-3.
The test system of series [6] is SARS-CoV-2. The format is cell-based. The source holds these as a separate data set.
A further series concerns sALCAM release. On the set-up: method as in PMID 24044434. As to conditions: ovarian cancer cell lines; cited from earlier work.
In series [7] the target is T1, MMP-1 (Homo sapiens, UniProt P03956).
T1 construct: purchased Merck Millipore 444208
T1 sequence (P03956 100-469): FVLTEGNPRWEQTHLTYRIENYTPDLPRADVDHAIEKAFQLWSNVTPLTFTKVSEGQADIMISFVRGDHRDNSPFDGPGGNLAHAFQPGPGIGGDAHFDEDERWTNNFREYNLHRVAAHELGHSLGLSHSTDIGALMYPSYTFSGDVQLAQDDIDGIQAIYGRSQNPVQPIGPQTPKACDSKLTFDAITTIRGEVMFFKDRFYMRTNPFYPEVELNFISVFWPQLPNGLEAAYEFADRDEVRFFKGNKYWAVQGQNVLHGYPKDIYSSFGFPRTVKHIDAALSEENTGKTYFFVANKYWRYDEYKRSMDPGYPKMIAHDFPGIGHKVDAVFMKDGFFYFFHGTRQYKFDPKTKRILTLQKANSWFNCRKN
To be noted: isolated enzyme, fluorometric assay; cited from earlier work.

The subject of a further series is CD16 shedding. The arrangement: method as in PMID 28192188. To be noted: 30 µM; PBMC co-cultured with hepatitis C virus-infected HuH7.5 cells; cited from earlier work.
The target in another series is T2, Recombinant human ADAM10 (Homo sapiens, UniProt O14672).
T2 construct: purchased R&D Systems 936-AD
T2 sequence (O14672 214-748): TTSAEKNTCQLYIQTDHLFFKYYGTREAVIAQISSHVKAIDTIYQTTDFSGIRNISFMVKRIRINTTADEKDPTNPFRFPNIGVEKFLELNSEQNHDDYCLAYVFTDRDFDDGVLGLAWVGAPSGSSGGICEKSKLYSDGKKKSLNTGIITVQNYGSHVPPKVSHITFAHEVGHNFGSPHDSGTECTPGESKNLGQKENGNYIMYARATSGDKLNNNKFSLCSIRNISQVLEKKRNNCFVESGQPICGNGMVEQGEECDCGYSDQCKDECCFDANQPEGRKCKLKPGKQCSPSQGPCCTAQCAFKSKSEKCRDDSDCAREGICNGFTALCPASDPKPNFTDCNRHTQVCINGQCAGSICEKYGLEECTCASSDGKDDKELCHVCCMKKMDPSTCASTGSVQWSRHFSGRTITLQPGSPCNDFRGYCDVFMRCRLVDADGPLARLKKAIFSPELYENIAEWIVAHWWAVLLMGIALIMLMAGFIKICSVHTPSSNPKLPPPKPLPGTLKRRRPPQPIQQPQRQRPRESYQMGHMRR
In words: Fluorometric enzyme inhibition assay, ADAM10. The series is classed as biochemical. As to conditions: isolated enzyme.

The next series has as its target T3, MMP-2 (Homo sapiens, UniProt P08253).
T3 construct: purchased Merck Millipore PF037
T3 sequence (P08253 110-660): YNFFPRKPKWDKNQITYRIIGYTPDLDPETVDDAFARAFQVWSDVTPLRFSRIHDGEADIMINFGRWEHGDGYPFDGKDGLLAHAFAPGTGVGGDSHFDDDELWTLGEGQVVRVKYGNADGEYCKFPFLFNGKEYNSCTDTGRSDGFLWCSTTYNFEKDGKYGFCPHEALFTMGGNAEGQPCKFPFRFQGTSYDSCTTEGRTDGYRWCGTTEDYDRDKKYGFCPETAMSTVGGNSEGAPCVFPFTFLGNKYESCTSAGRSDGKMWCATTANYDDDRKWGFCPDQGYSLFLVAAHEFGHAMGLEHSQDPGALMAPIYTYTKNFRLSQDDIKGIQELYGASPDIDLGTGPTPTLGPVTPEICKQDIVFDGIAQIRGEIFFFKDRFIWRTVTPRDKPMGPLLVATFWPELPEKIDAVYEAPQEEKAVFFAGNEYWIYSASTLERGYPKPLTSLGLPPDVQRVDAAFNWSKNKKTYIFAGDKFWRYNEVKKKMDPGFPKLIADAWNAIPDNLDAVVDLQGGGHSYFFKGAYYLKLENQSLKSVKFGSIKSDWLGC
The series is described as follows: Fluorometric enzyme inhibition assay, MMP-2. The series is classed as biochemical. As to conditions: isolated enzyme.

The target in series [8] is T1, MMP-1. The series is described as follows: Fluorometric enzyme inhibition assay, MMP-1. The series is classed as biochemical. To be noted: isolated enzyme.
Another series has as its target T4, MMP-9 (Homo sapiens, UniProt P14780).
T4 construct: purchased Merck Millipore PF038
The series is described as follows: Fluorometric enzyme inhibition assay, MMP-9. The format is biochemical. To be noted: isolated enzyme.

The target in series [9] is T5, Recombinant human MMP-14 catalytic domain (Homo sapiens, UniProt P50281).
T5 construct: Recombinant human MMP-14 catalytic domain was a kind gift of Prof; Gillian Murphy; gift of Prof; Gillian Murphy (Department of Oncology, University of Cambridge, UK)
The series is described as follows: Fluorometric enzyme inhibition assay, MMP-14. The series is classed as biochemical. To be noted: isolated enzyme.

For another series, the target named is T6, recombinant human ADAM17 (Homo sapiens, UniProt P78536).
T6 construct: purchased Merck Millipore PF133
T6 sequence (P78536 215-824): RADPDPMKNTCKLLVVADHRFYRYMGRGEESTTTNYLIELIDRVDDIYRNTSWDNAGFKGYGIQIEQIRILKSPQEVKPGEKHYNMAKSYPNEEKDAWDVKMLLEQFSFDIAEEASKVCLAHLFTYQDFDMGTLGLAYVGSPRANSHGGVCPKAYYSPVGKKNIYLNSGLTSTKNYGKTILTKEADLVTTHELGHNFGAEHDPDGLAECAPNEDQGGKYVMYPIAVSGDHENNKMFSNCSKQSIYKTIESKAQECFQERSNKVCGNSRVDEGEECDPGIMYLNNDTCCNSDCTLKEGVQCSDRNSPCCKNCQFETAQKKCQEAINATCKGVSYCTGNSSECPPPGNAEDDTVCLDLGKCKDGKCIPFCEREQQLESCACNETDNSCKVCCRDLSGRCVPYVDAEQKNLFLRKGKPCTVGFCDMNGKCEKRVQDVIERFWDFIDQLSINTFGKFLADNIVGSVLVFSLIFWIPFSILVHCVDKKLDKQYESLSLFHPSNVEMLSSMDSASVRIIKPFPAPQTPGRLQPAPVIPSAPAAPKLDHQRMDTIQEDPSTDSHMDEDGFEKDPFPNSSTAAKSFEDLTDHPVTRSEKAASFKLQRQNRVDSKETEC
In words: Fluorometric enzyme inhibition assay, ADAM17. The series is classed as biochemical. To be noted: isolated enzyme.

Setting [10] is: using CC50 values after 48 h of treatment.

Like-named read-outs stand apart in the source and are kept apart here. Where only a bound is given, the exact number is not on record here.

T4 sequence (P14780 107-707 limits assumed): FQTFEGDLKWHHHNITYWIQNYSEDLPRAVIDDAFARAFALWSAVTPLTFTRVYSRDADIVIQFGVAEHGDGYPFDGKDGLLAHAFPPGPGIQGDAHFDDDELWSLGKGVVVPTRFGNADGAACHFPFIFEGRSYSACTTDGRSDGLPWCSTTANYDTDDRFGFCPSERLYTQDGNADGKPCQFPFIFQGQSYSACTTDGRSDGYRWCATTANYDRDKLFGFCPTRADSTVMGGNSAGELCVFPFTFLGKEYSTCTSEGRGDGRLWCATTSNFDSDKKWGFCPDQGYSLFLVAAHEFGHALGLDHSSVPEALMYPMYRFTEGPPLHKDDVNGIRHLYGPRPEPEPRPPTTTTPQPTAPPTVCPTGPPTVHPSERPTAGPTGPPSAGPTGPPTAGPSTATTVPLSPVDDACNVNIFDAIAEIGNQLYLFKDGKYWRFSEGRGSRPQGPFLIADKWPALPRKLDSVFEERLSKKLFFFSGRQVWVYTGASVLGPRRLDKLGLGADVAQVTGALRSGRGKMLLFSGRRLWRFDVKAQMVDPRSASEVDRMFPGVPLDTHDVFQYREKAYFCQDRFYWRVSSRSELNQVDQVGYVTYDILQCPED

As to `CCCCCCCCCCCCCC(=O)O[C@@H]1[C@@H](C)[C@@]2(O)[C@@H](C=C(CO)C[C@]3(O)C(=O)C(C)=C[C@@H]23)[C@@H]2C(C)(C)[C@]12OC(C)=O` [PMA, Phorbol 12-myristate 13-acetate, reference compound], the “effect on SARS-CoV-2 infection (plaque assay and genome titration)” value in the series with SARS-CoV-2 [1] is reported as “induced a sensible SARS-CoV-2 infection progression”. Besides, the “ACE2 expression (immunofluorescence), ADAM17 inductor control” value in series [2] (PMA control, compared to untreated samples) was “slightly decreased ACE2 expression”. Also, the “Plaque dimension (mm ± SD)” value with SARS-CoV-2 [3] came to 0.82± 0.32 mm.

As usually defined, the EC50 is the concentration needed to bring the measured effect to its halfway point. For orientation: IC50 means the concentration needed to halve the response being measured. On to `NC(=O)NCCC[C@@H](NS(=O)(=O)c1ccc(OCc2cc(Br)cc(Br)c2)cc1)C(=O)NO` [JG26], for which, in [4], the CC50 at 24 h was found to be 77.9 µM and the CC50 at 48 h was 107 µM. In addition, in the series on SARS-CoV-2 [5], the “SI (selectivity index, CC50/EC50)” value is reported as 13.23 and it took 8.1 µM to reach a half-maximal effect (EC50). The “LR vs DMSO (viral load logarithmic reduction), RT-qPCR” value in the series with SARS-CoV-2 [6] is 2.37. Further, in the series on SARS-CoV-2 [1], the “LR vs DMSO (viral load logarithmic reduction), plaque assay” value is 1.44 and the “effect on viral infection at lower concentration” value is given as “did not show any effect”. In addition, the “block of sALCAM release” value in the series on sALCAM release is “able to block sALCAM release”. In addition, at MMP-1 [7], the IC50 is above 500 µM. Moreover, the “ACE2 expression on cell membranes (immunofluorescence)” value in [2] is recorded as “increased ACE2 expression”. In addition, the “reduction of CD16 shedding” value in the series with CD16 shedding is recorded as “active”. The “Plaque dimension (mm ± SD)” value in the series on SARS-CoV-2 [3] amounted to 0.42± 0.2 mm.

As to `CC(=O)N[C@@H]1[C@@H](O)[C@H](O)[C@@H](CO)O[C@H]1NC(=S)NCCOCCOCCOCCOCCC(=O)NCCC[C@@H](NS(=O)(=O)c1ccc(OCc2cc(Br)cc(Br)c2)cc1)C(=O)NO` [Compound 2, 1-(((2R, 3R, 4R, 5 S, 6R)-3-acetamido-4,5-dihydroxy-6-(hydroxymethyl)tetrahydro-2 H-pyran-2-yl)amino)-N-((R)-4-(4-((3,5-dibromobenzyl)oxy)phenylsulfonamido)-5-(hydroxyamino)-5-oxopentyl)-1-thioxo-5,8, 11, 14-tetraoxa-2-azaheptadecan-17-amide], the IC50 at Recombinant human ADAM10 was 0.81 µM; against MMP-2 it was 0.32 µM; at MMP-1 [8], above 200 µM; on MMP-9, 1.77 µM; in series [9] it was 70.7 µM; on recombinant human ADAM17, 0.0055 µM. The CC50 at 24 h in series [4] turned out to be 67.2 µM. Also, the CC50 at 48 h in [4] amounted to 72 µM. For the same compound, in the series with SARS-CoV-2 [5], the EC50 is 13.6 µM. Further, the “SI (selectivity index, CC50/EC50)” value with SARS-CoV-2 [5] (setting [10]) is given as 5.29. For the same compound, the “Plaque dimension (mm ± SD)” value with SARS-CoV-2 [3] is recorded as 0.61± 0.23 mm.

In the case of `O=C(NCCC[C@@H](NS(=O)(=O)c1ccc(OCc2cc(Br)cc(Br)c2)cc1)C(=O)NO)c1cccc(C(=O)NCCC[C@@H](NS(=O)(=O)c2ccc(OCc3cc(Br)cc(Br)c3)cc2)C(=O)NO)c1` [Compound 1], in series [4], the CC50 at 24 h was 113 µM and the CC50 at 48 h came to 113 µM. For the same compound, the EC50 with SARS-CoV-2 [5] stood at 12.7 µM. Besides, the “SI (selectivity index, CC50/EC50)” value in the series on SARS-CoV-2 [5] (setting [10]) is on record as 8.91. Further, the IC50 at MMP-1 [7] is above 200 µM. The “ACE2 expression on cell membranes (immunofluorescence)” value in series [2] was “increased ACE2 expression”. Besides, the “Plaque dimension (mm ± SD)” value with SARS-CoV-2 [3] was found to be 0.53± 0.19 mm.
